The values that follow come from ChEMBL document CHEMBL1156757, “Dihydroxyphenylisoindoline amides as orally bioavailable inhibitors of the heat shock protein 90 (hsp90) molecular chaperone” (J Med Chem, 2010).

For data set [1], the system named is Mus musculus. The data set can be described thus: Free plasma concentration in mouse at 100 mg/kg, po after 4 hrs. The format is ADME, organism-based. The arrangement: dose 100 mg/kg, route oral. As to conditions: in vivo.
Data set [2] can be described thus: AUC (0 to infinity) in rat at 2.5 mg/kg, iv. The format is ADME, organism-based. Also on record: time infinity, dose 2.5 mg/kg, route intravenous. Particulars: plasma.
Data set [3] in a line: Half life in rat. The format is ADME, organism-based. As to conditions: in vivo.
The subject of data set [4] is Mus musculus. As to the kind of experiment: Free plasma concentration in mouse at 100 mg/kg, po after 1 hr. Particulars: in vivo. The format is ADME, organism-based. The arrangement: dose 100 mg/kg, route oral.
The test system of data set [5] is Mus musculus. As to the kind of experiment: Free plasma concentration in mouse at 20 mg/kg, iv after 4 hrs. The arrangement: dose 20 mg/kg, route intravenous. The format is ADME, organism-based. As to conditions: in vivo.
Data set [6] is described as follows: Clearance in rat. As to conditions: in vivo. The format is ADME, organism-based.
The nature of data set [7]: Oral bioavailability in rat. The format is ADME, organism-based. As to conditions: in vivo.
Data set [8] is described as follows: Half life in mouse at 20 mg/kg, iv. The format is ADME, organism-based. The arrangement: dose 20 mg/kg, route intravenous. Particulars: in vivo.
Data set [9] has as its system Mus musculus. The data set can be described thus: Free plasma concentration in mouse at 100 mg/kg, ip after 4 hrs. As to conditions: in vivo. The arrangement: dose 100 mg/kg, route intraperitoneal. The format is ADME, organism-based.
In data set [10] the test system is Liver microsomes. The data set can be described thus: Hepatic clearance in human liver microsomes […]. The format is ADME, Microsome. On the technique in general: Microsomes from liver hold many membrane-bound enzymes, among them those of drug oxidation.
A further data set has as its target Heat shock protein HSP90 (Homo sapiens, UniProt P07900+P08238).
A short description of data set [11]: AUC (0 to infinity) in rat at 10 mg/kg, po. The format is ADME, organism-based. The arrangement: time infinity, dose 10 mg/kg, route oral. As to conditions: plasma.
The subject of data set [12] is Mus musculus. As to the kind of experiment: Free plasma concentration in mouse at 20 mg/kg, iv after 1 hr. The format is ADME, organism-based. The arrangement: dose 20 mg/kg, route intravenous. As to conditions: in vivo.
For data set [13], the system named is Mus musculus. The data set can be described thus: Free plasma concentration in mouse at 100 mg/kg, ip after 1 hr. The format is ADME, organism-based. The arrangement: dose 100 mg/kg, route intraperitoneal. Particulars: in vivo.
The nature of data set [14]: Volume of distribution in rat. As to conditions: in vivo. The format is ADME, organism-based.
For data set [15], the system named is Liver microsomes. As to the kind of experiment: Hepatic clearance in rat liver microsomes […]. The format is ADME, Microsome.
The nature of data set [16]: Half life in mouse at 100 mg/kg, po. Also on record: dose 100 mg/kg, route oral. As to conditions: in vivo. The format is ADME, organism-based.

Regarding `CCNC(=O)[C@H]1c2ccccc2CN1C(=O)c1cc(Cl)c(O)cc1O`, the “Cp(f)” value in the data set with Mus musculus [1] turned out to be 330 nM; in the data set with Mus musculus [4], 810 nM; in the data set on Mus musculus [5] it was 76 nM; in the data set with Mus musculus [9] it was 410 nM; in the data set with Mus musculus [12] it was 286 nM; in the data set with Mus musculus [13] it was 16000 nM. The AUC(0-inf) in data set [2] is 1700 ng·h/mL; in data set [11], 1300 ng·h/mL. The half-life is 5.2 h in data set [3], 5.2 h in [8] and 8.3 h in data set [16]. The compound also had a clearance in data set [6] of 23.3 mL/min/kg. The compound further displayed a bioavailability in data set [7] of 20%. Moreover, the figures for the CLH with Liver microsomes [10] and with Liver microsomes [15] were 7 µL/min and 0.2 µL/min, respectively. Also, the 50% inhibitory concentration (IC50) against Heat shock protein HSP90 was 300 nM. The compound further gave a volume of distribution (Vd) in [14] of 3.3 L/kg.
For `O=C(NC1CCCCC1)[C@H]1CCCN1C(=O)c1cc(Cl)c(O)cc1O`, in the data set with Liver microsomes [10], the CLH was 9 µL/min.
Compound `O=C(NCc1ccccc1)C1c2ccccc2CN1C(=O)c1cc(Cl)c(O)cc1O` (stereo unspecified) returned a CLH with Liver microsomes [10] of 25 µL/min. On Heat shock protein HSP90, this compound registered a 50% inhibitory concentration (IC50) of 700 nM.
In turn, `CCCNC(=O)C1c2ccccc2CN1C(=O)c1cc(Cl)c(O)cc1O` (stereo unspecified) yielded a CLH with Liver microsomes [10] of 9 µL/min.
On the same count and under the same terms, as for `CN(C)C(=O)[C@H]1CCCN1C(=O)c1cc(Cl)c(O)cc1O`, the figure is < 7 µL/min.
Consider `CNC(=O)C1c2ccccc2CN1C(=O)c1cc(Cl)c(O)cc1O` (stereo unspecified), for which the CLH in the data set with Liver microsomes [10] was < 2 µL/min. The compound further showed a 50% inhibitory concentration (IC50) at Heat shock protein HSP90 of 1700 nM.
For `Cc1ccccc1[C@H]1CCCN1C(=O)c1cc(Cl)c(O)cc1O`, in the data set with Liver microsomes [10], the CLH worked out at 129 µL/min. Moreover, the IC50 against Heat shock protein HSP90 was found to be 1000 nM.
`O=C(c1cc(Cl)c(O)cc1O)N1CCCC1`: the CLH with Liver microsomes [10] came to 56 µL/min.
For the compound `O=C([C@H]1CCCN1C(=O)c1cc(Cl)c(O)cc1O)N1CCCC1`, the CLH with Liver microsomes [10] was < 9 µL/min.
As for `O=C([C@H]1c2ccccc2CN1C(=O)c1cc(Cl)c(O)cc1O)N1CCCC1`, the area under the curve AUC(0-inf) came out at 2100 ng·h/mL in [2] and 2900 ng·h/mL in data set [11]. The half-life in data set [3] is 7.9 h. Further, the clearance in [6] was 23.3 mL/min/kg. In [7], this compound returned a bioavailability of 35%. The CLH in the data set with Liver microsomes [10] was 11 µL/min; with Liver microsomes [15], 0.2 µL/min. The same compound registered an IC50 against Heat shock protein HSP90 of 600 nM. In data set [14], this compound had a Vd of 8.1 L/kg.
In the data set with Liver microsomes [10], `CCNC(=O)C1c2ccccc2CN1C(=O)c1cc(Cl)c(O)cc1O` (stereo unspecified) yielded a CLH of 4.7 µL/min. Further, the IC50 on Heat shock protein HSP90 amounted to 300 nM.
Regarding `C=CCNC(=O)C1c2ccccc2CN1C(=O)c1cc(Cl)c(O)cc1O` (stereo unspecified), the CLH in the data set with Liver microsomes [10] is 8.5 µL/min. The concentration for half-maximal inhibition (IC50) on Heat shock protein HSP90 worked out at 1500 nM.
On the same counts, the results for `CN(C)C(=O)C1c2ccccc2CN1C(=O)c1cc(Cl)c(O)cc1O` (stereo unspecified) are 2.4 µL/min and 1500 nM.
Turning to `O=C(C1c2ccccc2CN1C(=O)c1cc(Cl)c(O)cc1O)N1CCCC1` (stereo unspecified), the CLH in the data set with Liver microsomes [10] was 2 µL/min. The compound also gave a half-inhibitory concentration (IC50) against Heat shock protein HSP90 of 600 nM.
Consider `CO[C@H]1/C=C\C=C(/C)C(=O)NC2=CC(=O)C(NCCN(C)C)=C(C[C@@H](C)C[C@H](OC)[C@H](O)[C@@H](C)/C=C(\C)[C@@H]1OC(N)=O)C2=O` [ALVESPIMYCIN], for which the CLH with Liver microsomes [10] is < 3 µL/min.

For orientation: AUC(0-inf) means total exposure, with the tail of the curve extrapolated. Read a high AUC(0-inf) as high exposure. By half-life is commonly meant the time in which the quantity being followed falls by half. A word on the clearance: it is the volume of plasma or blood freed of the substance per unit of time. A higher clearance goes with a high capacity for elimination. A word on the bioavailability: it is dose-corrected exposure relative to a reference, in per cent. The term IC50 denotes the concentration that inhibits the measured activity by half. A higher IC50 goes with weaker potency. Usually Vd stands for a proportionality between amount in the body and measured concentration, not a real space. Read a low Vd as confinement near the circulation.
